{"source": "patent US8959984B2", "about": "“Proteome-wide quantification of small molecule binding to cellular target proteins” (priority 2007, dated 2015)", "test_in_all_cases": "binding to AX14596 beads (HeLa lysate, SILAC MS)", "key": {"CDA": {"biological_target": "T1, CDA (Homo sapiens, UniProt P32320)", "T1 construct": "endogenous in cells; host or cells: HeLa S3", "T1 sequence (P32320 whole entry)": "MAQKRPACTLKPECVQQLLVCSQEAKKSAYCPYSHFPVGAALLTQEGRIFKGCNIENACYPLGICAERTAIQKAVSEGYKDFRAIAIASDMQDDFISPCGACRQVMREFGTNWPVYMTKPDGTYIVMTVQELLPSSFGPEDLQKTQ", "experimental": "(§1) Differentially SILAC-encoded cell lysates were either incubated with the inhibitor beads displaying immobilized AX14596 or control resin devoid of ligand. In parallel, the supernatant from the first binding step was subjected to a second incubation with the AX14596 resin (FIG. 4). The resulting three elution fractions were combined, resolved by gel electrophoresis, proteolytically digested and the relative abundance of the retained proteins quantified. Proteins showing considerable binding to the control resin were identified as non-specific interactors and therefore not considered further. […] These target-specific ratios were similar in “label switch” experiments (FIGS. 6a and 6c). The binding equilibrium was determined in parallel control SILAC experiments as well as the excess of the immobilized compound over its cellular targets, the excess preferably being a molar excess (FIG. 7 and FIG. 8).\n(§2) Cysteine carbamidomethylation was set as a fixed modification and N-acetyl protein and oxidized methionine were allowed as variable modifications. Spectra that were determined to result from heavy labeled peptides in the pre-search detection of SILAC partners by MaxQuant were searched with the fixed modifications Lys^4, Lys^8, Arg^6 and Arg^10, whereas MS/MS spectra for which no SILAC state could be assigned before database searching were searched with Lys^4, Lys^8, Arg^6 and Arg^10 as variable modifications. The mass tolerance was set to 5 ppm for monoisotopic precursor ions and to 0.5 Da for MS/MS peaks. The minimum peptide length was set to 6 amino acids and up to three missed cleavages and three isotopically labeled amino acids were permitted per peptide. The accepted false discovery rate (FDR) was 1% for the proteins and peptides. The cut-off for the posterior error probability (PEP) of peptides was set to 10%. Peptide PEPs were determined by generating Mascot score and peptide-length-dependent histograms for both the forward and the reverse hits and then deriving the probability of a false identification for a given top-scoring peptide using Bayes' theorem. The PEPs of peptides belonging to the same proteins were then multiplied. Each peptide sequence was considered only once with the lowest PEP determined in case of multiple sequencing of the same isotopic pattern or of peptide species with different SILAC, charge or modification states. Proteins were then sorted according to their products of their peptide PEPs and included until a FDR of 1% was reached according to the fraction of reverse proteins contained in the protein list. In addition to the FDR threshold applied for protein identification, proteins were only included when they were identified with at least two peptides (of which one was required to be unique for the protein) and quantified if at least on quantifiable SILAC pair was associated with them. Outliers were not removed as protein ratios were calculated as the median instead of the average of all peptide ratios. For peptides shared among different identified proteins, SILAC ratios were only considered for the ratio of the protein identified with the highest number of unique peptides. Protein ratios for the different in vitro association experiments were corrected for the initial SILAC pooling ratio, which was determined from the median of protein ratios in pooled SILAC-encoded cell extracts."}, "SNRPE": {"biological_target": "SNRPE (Homo sapiens, UniProt P62304)", "sequence (P62304 whole entry)": "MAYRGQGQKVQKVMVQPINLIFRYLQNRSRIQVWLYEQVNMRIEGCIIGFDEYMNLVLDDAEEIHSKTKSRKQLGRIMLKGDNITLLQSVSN", "experimental": "as §1, §2"}, "[1]": {"biological_target": "p38a (MAPK14, IPI00221141) (Homo sapiens, UniProt Q16539)", "sequence (Q16539 1-360 isoform Q16539-2)": "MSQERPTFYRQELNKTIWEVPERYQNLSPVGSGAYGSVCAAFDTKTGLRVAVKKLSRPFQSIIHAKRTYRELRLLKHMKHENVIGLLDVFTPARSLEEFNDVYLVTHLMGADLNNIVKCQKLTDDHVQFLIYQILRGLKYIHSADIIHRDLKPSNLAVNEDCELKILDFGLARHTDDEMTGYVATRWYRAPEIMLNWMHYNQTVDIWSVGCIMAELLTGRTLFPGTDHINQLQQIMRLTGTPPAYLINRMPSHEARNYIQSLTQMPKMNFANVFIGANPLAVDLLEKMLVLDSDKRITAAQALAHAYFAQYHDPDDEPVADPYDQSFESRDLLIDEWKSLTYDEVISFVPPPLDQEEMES", "experimental": "as §1, §2"}, "CaMK2g (CAMK2G)": {"biological_target": "CaMK2g (CAMK2G) (Homo sapiens, UniProt Q13555)", "sequence (Q13555 whole entry)": "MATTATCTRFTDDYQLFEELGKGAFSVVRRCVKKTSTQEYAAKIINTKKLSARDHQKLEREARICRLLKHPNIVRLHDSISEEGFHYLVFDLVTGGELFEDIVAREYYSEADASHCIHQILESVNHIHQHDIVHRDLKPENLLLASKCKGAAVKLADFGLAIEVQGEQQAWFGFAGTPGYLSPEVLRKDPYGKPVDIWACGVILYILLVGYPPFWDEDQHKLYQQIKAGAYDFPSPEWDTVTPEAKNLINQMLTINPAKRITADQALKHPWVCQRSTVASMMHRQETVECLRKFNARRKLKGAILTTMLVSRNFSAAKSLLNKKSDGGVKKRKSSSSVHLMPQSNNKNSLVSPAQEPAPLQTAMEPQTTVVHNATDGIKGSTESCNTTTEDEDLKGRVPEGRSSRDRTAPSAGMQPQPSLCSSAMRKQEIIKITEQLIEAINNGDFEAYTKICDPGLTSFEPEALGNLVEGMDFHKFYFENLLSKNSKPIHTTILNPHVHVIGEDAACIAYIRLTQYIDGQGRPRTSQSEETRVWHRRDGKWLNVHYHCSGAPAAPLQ", "experimental": "as §1, §2"}, "EGFR": {"biological_target": "T2, EGFR (Homo sapiens, UniProt P00533)", "T2 construct": "endogenous in cells; host or cells: HeLa S3", "T2 sequence (P00533 25-1210)": "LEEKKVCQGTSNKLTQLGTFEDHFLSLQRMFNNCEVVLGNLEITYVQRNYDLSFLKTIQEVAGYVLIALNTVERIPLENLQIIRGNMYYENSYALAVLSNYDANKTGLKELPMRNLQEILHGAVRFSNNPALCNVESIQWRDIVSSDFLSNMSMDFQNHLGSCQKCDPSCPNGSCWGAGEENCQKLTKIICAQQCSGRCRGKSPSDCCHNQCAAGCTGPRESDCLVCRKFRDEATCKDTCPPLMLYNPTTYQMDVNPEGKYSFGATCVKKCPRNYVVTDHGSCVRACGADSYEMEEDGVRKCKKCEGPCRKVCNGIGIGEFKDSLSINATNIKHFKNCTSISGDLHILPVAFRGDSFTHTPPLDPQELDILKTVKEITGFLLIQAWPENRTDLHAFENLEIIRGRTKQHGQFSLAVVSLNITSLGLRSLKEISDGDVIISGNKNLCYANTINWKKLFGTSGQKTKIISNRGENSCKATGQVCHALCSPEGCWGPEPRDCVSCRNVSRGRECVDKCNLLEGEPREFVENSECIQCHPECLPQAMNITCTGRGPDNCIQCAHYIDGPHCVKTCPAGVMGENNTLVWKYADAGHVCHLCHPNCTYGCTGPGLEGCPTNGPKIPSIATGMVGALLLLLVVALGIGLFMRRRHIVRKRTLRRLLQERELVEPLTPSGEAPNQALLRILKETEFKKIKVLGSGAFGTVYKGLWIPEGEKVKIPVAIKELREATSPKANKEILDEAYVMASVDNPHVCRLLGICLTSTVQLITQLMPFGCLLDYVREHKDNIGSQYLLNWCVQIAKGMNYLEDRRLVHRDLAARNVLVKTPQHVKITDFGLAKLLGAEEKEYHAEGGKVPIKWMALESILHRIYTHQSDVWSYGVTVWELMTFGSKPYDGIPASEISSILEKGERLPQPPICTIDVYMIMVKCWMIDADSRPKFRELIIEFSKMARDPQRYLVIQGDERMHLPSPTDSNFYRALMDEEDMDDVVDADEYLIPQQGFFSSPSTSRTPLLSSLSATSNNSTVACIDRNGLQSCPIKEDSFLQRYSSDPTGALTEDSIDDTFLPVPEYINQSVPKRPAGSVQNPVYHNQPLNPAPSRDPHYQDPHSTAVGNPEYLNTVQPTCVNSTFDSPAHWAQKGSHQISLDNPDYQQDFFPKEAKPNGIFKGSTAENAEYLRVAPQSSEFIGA", "experimental": "as §1, §2"}, "EphB2": {"biological_target": "T3, EphB2 (Homo sapiens, UniProt P29323)", "T3 sequence (P29323 19-1055)": "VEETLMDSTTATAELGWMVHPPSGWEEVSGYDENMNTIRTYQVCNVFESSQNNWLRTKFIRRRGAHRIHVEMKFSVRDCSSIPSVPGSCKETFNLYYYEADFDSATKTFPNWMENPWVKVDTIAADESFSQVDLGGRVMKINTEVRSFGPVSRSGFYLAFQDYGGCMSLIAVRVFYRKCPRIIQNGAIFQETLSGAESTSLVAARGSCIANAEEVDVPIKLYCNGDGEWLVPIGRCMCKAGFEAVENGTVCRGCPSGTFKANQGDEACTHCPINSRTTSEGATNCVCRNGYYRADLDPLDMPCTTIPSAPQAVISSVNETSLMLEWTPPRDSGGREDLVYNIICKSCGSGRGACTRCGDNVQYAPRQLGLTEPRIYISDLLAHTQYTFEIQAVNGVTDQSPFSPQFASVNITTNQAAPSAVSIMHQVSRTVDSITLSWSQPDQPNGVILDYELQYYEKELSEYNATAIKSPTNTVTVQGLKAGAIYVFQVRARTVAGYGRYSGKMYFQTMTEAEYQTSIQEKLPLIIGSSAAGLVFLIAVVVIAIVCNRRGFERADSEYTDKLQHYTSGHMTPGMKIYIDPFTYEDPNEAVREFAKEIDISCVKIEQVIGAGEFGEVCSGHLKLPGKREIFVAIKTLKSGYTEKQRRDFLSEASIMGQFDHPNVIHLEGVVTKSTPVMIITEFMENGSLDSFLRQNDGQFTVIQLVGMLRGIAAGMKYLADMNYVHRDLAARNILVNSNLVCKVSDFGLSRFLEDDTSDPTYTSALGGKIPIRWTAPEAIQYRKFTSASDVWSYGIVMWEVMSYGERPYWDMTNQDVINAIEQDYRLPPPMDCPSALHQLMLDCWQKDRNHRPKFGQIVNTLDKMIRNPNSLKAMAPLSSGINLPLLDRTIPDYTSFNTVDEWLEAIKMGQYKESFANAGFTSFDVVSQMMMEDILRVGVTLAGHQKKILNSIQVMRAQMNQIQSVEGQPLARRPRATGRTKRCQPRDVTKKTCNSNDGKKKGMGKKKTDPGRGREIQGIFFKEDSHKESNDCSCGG", "experimental": "as §1, §2"}, "RIPK2": {"biological_target": "RIPK2 (Homo sapiens, UniProt O43353)", "sequence (O43353 whole entry)": "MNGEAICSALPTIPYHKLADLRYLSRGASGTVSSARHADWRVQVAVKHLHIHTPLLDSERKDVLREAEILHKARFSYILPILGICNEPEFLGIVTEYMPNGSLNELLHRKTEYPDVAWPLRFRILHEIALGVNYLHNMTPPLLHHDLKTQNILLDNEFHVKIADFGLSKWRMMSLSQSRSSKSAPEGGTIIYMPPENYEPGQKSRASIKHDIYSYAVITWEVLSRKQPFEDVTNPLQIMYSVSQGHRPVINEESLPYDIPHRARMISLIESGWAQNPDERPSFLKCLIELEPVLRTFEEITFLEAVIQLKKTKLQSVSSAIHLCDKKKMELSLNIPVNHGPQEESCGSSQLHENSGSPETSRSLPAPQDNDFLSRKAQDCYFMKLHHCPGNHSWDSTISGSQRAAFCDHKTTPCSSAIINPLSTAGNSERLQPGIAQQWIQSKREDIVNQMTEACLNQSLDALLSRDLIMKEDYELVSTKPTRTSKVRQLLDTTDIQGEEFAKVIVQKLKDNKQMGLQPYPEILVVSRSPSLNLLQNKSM", "experimental": "as §1, §2"}}, "note": "Where “and” joins values, the source holds several entries; their conditions need not be identical. Equal values may be shown once.", "data": [{"compound": "COc1cc2ncnc(Nc3ccc(F)c(Cl)c3)c2cc1OCCCN", "note": "[AX14596]", "values": [{"measurement": "Ki", "setting": "CDA", "result": 402, "unit": "µM"}, {"measurement": "r (3 mg/1 mg lysate)", "setting": "CDA", "result": 3.09}, {"measurement": "rAVERAGE (2. inc/1. inc)", "setting": "CDA", "result": 0.80}, {"measurement": "rAVERAGE (control/1. inc)", "setting": "CDA", "result": 0.09}, {"measurement": "Ki", "setting": "SNRPE", "result": 106, "unit": "µM"}, {"measurement": "r (3 mg/1 mg lysate)", "setting": "SNRPE", "result": 2.57}, {"measurement": "r (5 h/2.5 h inc. time)", "setting": "SNRPE", "result": 1.88}, {"measurement": "rAVERAGE (2. inc/1. inc)", "setting": "SNRPE", "result": 0.51}, {"measurement": "rAVERAGE (control/1. inc)", "setting": "SNRPE", "result": 0.07}, {"measurement": "Ki", "setting": "[1]", "result": 168, "unit": "µM"}, {"measurement": "r (3 mg/1 mg lysate)", "setting": "[1]", "result": 2.87}, {"measurement": "rAVERAGE (2. inc/1. inc)", "setting": "[1]", "result": 0.63}, {"measurement": "rAVERAGE (control/1. inc)", "setting": "[1]", "result": 0.03}, {"measurement": "Ki", "setting": "CaMK2g (CAMK2G)", "result": 93.4, "unit": "µM"}, {"measurement": "r (3 mg/1 mg lysate)", "setting": "CaMK2g (CAMK2G)", "result": 2.45}, {"measurement": "r (5 h/2.5 h inc. time)", "setting": "CaMK2g (CAMK2G)", "result": 1.17}, {"measurement": "rAVERAGE (2. inc/1. inc)", "setting": "CaMK2g (CAMK2G)", "result": 0.48}, {"measurement": "rAVERAGE (control/1. inc)", "setting": "CaMK2g (CAMK2G)", "result": 0.04}, {"measurement": "Ki", "setting": "EGFR", "result": "44 µM and 44.5 µM"}, {"measurement": "r (3 mg/1 mg lysate)", "setting": "EGFR", "result": 2.65}, {"measurement": "r (5 h/2.5 h inc. time)", "setting": "EGFR", "result": 0.90}, {"measurement": "rAVERAGE (2. inc/1. inc)", "setting": "EGFR", "result": 0.31}, {"measurement": "rAVERAGE (control/1. inc)", "setting": "EGFR", "result": 0.03}, {"measurement": "% BOUND", "setting": "EGFR; bound to AX14596 beads", "result": 69, "unit": "%"}, {"measurement": "Ki", "setting": "EphB2", "result": 213, "unit": "µM"}, {"measurement": "r (3 mg/1 mg lysate)", "setting": "EphB2", "result": 3.41}, {"measurement": "r (5 h/2.5 h inc. time)", "setting": "EphB2", "result": 1.06}, {"measurement": "rAVERAGE (2. inc/1. inc)", "setting": "EphB2", "result": 0.68}, {"measurement": "rAVERAGE (control/1. inc)", "setting": "EphB2", "result": 0.04}, {"measurement": "Ki", "setting": "RIPK2", "result": "6.2 µM and 6.19 µM"}, {"measurement": "r (3 mg/1 mg lysate)", "setting": "RIPK2", "result": 2.68}, {"measurement": "r (5 h/2.5 h inc. time)", "setting": "RIPK2", "result": 0.90}, {"measurement": "rAVERAGE (2. inc/1. inc)", "setting": "RIPK2", "result": 0.06}, {"measurement": "rAVERAGE (control/1. inc)", "setting": "RIPK2", "result": 0.02}, {"measurement": "% BOUND", "setting": "RIPK2; bound to AX14596 beads", "result": 94, "unit": "%"}]}]}
